Laboratory results: patent US9499493B2, “2,4-pyrimidinediamine compounds and their uses” (Rigel Pharmaceuticals, Inc., priority 2002, dated 2016)
Structures can show the parent of a compound that is named as a salt.

Tested on: cultured human mast cells (CHMC)
Experiment: CHMC low cell density ionomycin activation: tryptase assay
Format: cell-based
Conditions: not given

With `CNC(=O)C(C)(C)Oc1cccc(Nc2ncc(F)c(Nc3cccc(O)c3)n2)c1` [R926913, 5-Fluoro-N4-(3-hydroxyphenyl)-N2-[3-[(N-methylamino)carbonyl-1,1-dimethylmethyleneoxy]phenyl]-2,4-pyrimidinediamine] as the compound, how does the IC50 read?
Its IC50 is over 10 µM.

For `CNC(=O)COc1cccc(Nc2ncc(F)c(Nc3ccc4c(c3)NCCO4)n2)c1` [R920395, N4-(1,4-Benzoxazin-6-yl)-5-fluoro-N2-[3-(N-methylamino)carbonylmethyleneoxyphenyl]-2,4-pyrimidinediamine Hydrogen Chloride Salt], which IC50 is on record?
Its IC50 is over 10 µM.

For `COC(=O)c1ccc(Cn2cc3ccc(Nc4ncc(F)c(Nc5ccc6c(c5)OCCO6)n4)cc3n2)c(OC)c1` [R935336, N4-(3,4-Ethylenedioxyphenyl)-5-fluoro-N2-[2-(2-methoxy-4-carbomethoxybenzyl)indazoline-6-yl]-2,4-pyrimidinediamine], which IC50 is on record?
The IC50 was over 10 µM.

How did the IC50 turn out when `CCOC(=O)CCn1ncc2cc(Nc3ncc(F)c(Nc4ccc(OC(F)(F)F)c(Cl)c4)n3)ccc21` [R935354, N4-(3-Chloro-4-trifluoromethoxy-phenyl)-N2-[1-(2-ethoxycarbonylethyl)indazoline-5-yl]-5-fluoro-2,4-pyrimidinediamine] was run?
The IC50 was over 10 µM.

How did the IC50 turn out when `OCCCn1ncc2ccc(Nc3ncc(F)c(Nc4cccc(O)c4)n3)cc21` [R935293, 5-Fluoro-N4-(3-hydroxyphenyl)-N2-[1-(3-hydroxypropyl)indazoline-6-yl]-2,4-pyrimidinediamine] was run?
Its IC50 is over 10 µM.

With `CSc1nc2ccc(Nc3ncc(F)c(Nc4cccc(O)c4)n3)cc2s1` [R950212, 5-Fluoro-N4-(3-hydroxyphenyl)-N2-[2-(methylthio)-1,3-benzothiaz-6-yl)-2,4-pyrimidinediamine] as the compound, how does the IC50 read?
The IC50 was over 10 µM.

Which IC50 does the source give for `CCOc1ccc(Nc2nc(Nc3cccc(OCC(=O)NC)c3)ncc2F)cc1S(=O)(=O)O` [R950389, N4-(4-Ethoxy-3-hydroxysulfonylphenyl)-5-fluoro-N2-[3-(N-methylamino)carbonylmethyleneoxyphenyl]-2,4-pyrimidinediamine] here?
The IC50 was over 10 µM.

`CNC(=O)COc1cccc(Nc2ncc(F)c(Nc3cccc(NCCO)c3)n2)c1` [R950265, N4-(3-N-Hydroxyethylaminophenyl)-5-fluoro-N2-[3-(N-methylamino)carbonylmethyleneoxyphenyl]-2,4-pyrimidinediamine] was tested. Which IC50 did it give?
The IC50 was over 10 µM.

Which IC50 does the source give for `CC(C)(CO)NC(=O)COc1cccc(Nc2ncc(F)c(Nc3cccc(C(C)(C)C)c3)n2)c1` [R940308, N4-(3-tert-Butylpheny)-5-fluoro-N2-[3-(1,1-dimethyl-2-hydroxyethylaminocarbonylmethyleneoxy)-phenyl]-2,4-pyrimidinediamine] here?
Its IC50 is 4.17 µM.

For `Fc1cnc(Nc2ccc3cn[nH]c3c2)nc1Nc1cccc(OC(F)(F)F)c1` [R935363, 5-Fluoro-N2-(indazoline-6-yl)-N4-(3-trifluoromethoxyphenyl)-2,4-pyrimidinediamine], which IC50 is on record?
Its IC50 is over 10 µM.

For `OCCNc1cccc(Nc2ncc(F)c(Nc3cccc(NCCO)c3)n2)c1` [R950181, N2,N4-Bis(3-hydroxyethyleneaminophenyl)-5-fluoro-2,4-pyrimidinediamine], which IC50 is on record?
The IC50 was over 10 µM.

Which IC50 does the source give for `Cc1cc(Nc2nc(Cl)ncc2F)ccc1F` [Compound R926921] here?
The IC50 was over 10 µM.

Which IC50 does the source give for `N#CCOc1ccc(Nc2ncc(F)c(Nc3cccc(O)c3)n2)cc1` [R945070, N2-(4-Cyanomethyleneoxyphenyl)-5-fluoro-N4-(3-hydroxyphenyl)-2,4-pyrimidinediamine] here?
The IC50 was over 10 µM.

Which IC50 does the source give for `Oc1cccc(Nc2ncc(F)c(Nc3ccc4c(c3)OCCO4)n2)c1` [R925796, N4-(3,4-Ethylenedioxyphenyl)-5-fluoro-N2-(3-hydroxyphenyl)-2,4-pyrimidinediamine] here?
Its IC50 is over 10 µM.

How did the IC50 turn out when `CNC(=O)COc1cccc(Nc2ncc(F)c(Nc3cccc([N+](=O)[O-])c3)n2)c1` [R950261, N4-(3-Nitrophenyl)-5-fluoro-N2-[3-(N-methylamino)carbonylmethyleneoxyphenyl]-2,4-pyrimidinediamine] was run?
Its IC50 is over 10 µM.

Which IC50 does the source give for `CNC(=O)COc1cccc(Nc2ncc(F)c(Nc3ccc(C)c(O)c3)n2)c1` [R926753, 5-Fluoro-N4-(3-hydroxy-4-methylphenyl)-N2-[3-[(N-methylamino)carbonylmethyleneoxy]phenyl]-2,4-pyrimidinediamine] here?
Its IC50 is over 10 µM.

For `CN(CCO)C(=O)c1cc2cc(Nc3ncc(F)c(Nc4cccc(O)c4)n3)ccc2o1` [R926725, 5-Fluoro-N4-(3-hydroxyphenyl)-N2-[2-(N-methyl-N-2-hydroxyethyl)carbonylbenzofuran-5-yl)-2,4-pyrimidinediamine], which IC50 is on record?
Its IC50 is over 10 µM.

`Cc1cc(Nc2nc(Nc3cccc(OCCN4CCOCC4)c3)ncc2F)cc(C)c1O` [R940255, N4-(3,5-Dimethyl-4-hydroxyphenyl)-5-fluoro-N2-[3-[2-(N-morpholino)ethyleneoxy]phenyl]-2,4-pyrimidinediamine] was tested. Which IC50 did it give?
Its IC50 is over 10 µM.

For `Oc1cccc(Nc2nc(Nc3ccc4[nH]ncc4c3)ncc2F)c1` [R935199, 5-Fluoro-N4-(3-hydroxyphenyl)-N2-(indazoline-5-yl)-2,4-pyrimidinediamine], which IC50 is on record?
The IC50 was over 10 µM.

Which IC50 does the source give for `Cn1ncc2cc(Nc3ncc(F)c(Nc4ccc5c(c4)OC(F)(F)O5)n3)ccc21` [R935357, N4-(3,4-Difluoromethylendioxyphenyl)-5-fluoro-N2-(1-methylindazoline-5-yl)-2,4-pyrimidinediamine] here?
Its IC50 is over 10 µM.

How did the IC50 turn out when `CNC(=O)COc1cccc(Nc2ncc(F)c(Nc3cccc4c3C(=O)N(C)C4=O)n2)c1` [R926856, 5-Fluoro-N2-[3-(N-methylamino)carbonylmethyleneoxyphenyl]-N4-(N-methylphthalimido-4-yl)-2,4-pyrimidinediamine] was run?
The IC50 was over 10 µM.

Which IC50 does the source give for `CC(C)NC(=O)COc1cccc(Nc2ncc(F)c(Nc3ccc4c(c3)OCCO4)n2)c1` [R926830, N4-(3,4-Ethylenedioxyphenyl)-5-fluoro-N2-[3-(N-isopropylamino)carbonylmethyleneoxyphenyl]-2,4-pyrimidinediamine] here?
The IC50 was 10 µM.

Which IC50 does the source give for `COC(=O)COc1ccc(Nc2ncc(F)c(Nc3cccc(C#N)c3)n2)cc1` [R945110, N4-(3-Cyanophenyl)-5-fluoro-N2-(4-methoxycarbonylmethyleneoxyphenyl)-2,4-pyrimidinediamine] here?
Its IC50 is over 10 µM.

With `O=C(COc1cccc(Nc2ncc(F)c(Nc3ccc4c(c3)OCCO4)n2)c1)NC1CC1` [R926848, N2-[3-(N-Cyclopropylamino)carbonylmethyleneoxyphenyl]-N4-(3,4-ethylenedioxyphenyl)-5-fluoro-2,4-pyrimidinediamine] as the compound, how does the IC50 read?
Its IC50 is 10 µM.

Which IC50 does the source give for `O=C(c1cc2cc(Nc3ncc(F)c(Nc4ccc5c(c4)OCCO5)n3)ccc2o1)N1CCOCC1` [R926492, N4-(3,4-Ethylenedioxyphenyl)-5-fluoro-N2-[2-(N-morpholino)carbonylbenzofuran-5-yl]-2,4-pyrimidinediamine] here?
Its IC50 is over 10 µM.

How did the IC50 turn out when `CNC(=O)COc1cc(Nc2ncc(F)c(Nc3cccc(O)c3)n2)cc(OCC(=O)NC)c1` [R926930, N2-[3,5-Bis[(N-methylamino)carbonylmethyleneoxy]phenyl]-5-fluoro-N4-(3-hydroxyphenyl)-2,4-pyrimidinediamine] was run?
The IC50 was over 10 µM.

How did the IC50 turn out when `O=C(c1cc2cc(Nc3ncc(F)c(Nc4ccc5c(c4)OCCO5)n3)ccc2o1)N1CCCNCC1` [R926767, N4-(3,4-Ethylenedioxyphenyl)-5-fluoro-N2-[2-(N-homopiperazino)carbonylbenzofuran-5-yl]-2,4-pyrimidinediamine] was run?
The IC50 was over 10 µM.

Same assay, conditions: Homo sapiens, Mast cell

For `CNC(=O)CNc1cccc(Nc2ncc(F)c(Nc3cccc(O)c3)n2)c1` [R950218], which IC50 is on record?
Its IC50 is over 10 µM.
